# Laboratory results: ChEMBL document CHEMBL5537115, “New broad-spectrum and potent antibacterial agents with dual-targeting mechanism: Promoting FtsZ polymerization and disrupting bacterial membranes” (Eur J Med Chem, 2024)
# Key:
# Format in all cases: functional
# [1] = tested on: Streptococcus pyogenes; assay: Antibacterial activity against erythromycin-resistant Streptococcus pyogenes 2 clinical isolate assessed as bacterial growth inhibition incubated for 20 hrs by CLSI based broth microdilution method
# [2] = tested on: Escherichia coli; assay: Antibacterial activity against penicillin-susceptible Escherichia coli ATCC25922 assessed as bacterial growth inhibition incubated for 20 hrs by CLSI based broth microdilution method
# [3] = tested on: Staphylococcus aureus; assay: Antibacterial activity against penicillin-resistant Staphylococcus aureus ATCC31007 assessed as bacterial growth inhibition incubated for 20 hrs by CLSI based broth microdilution method
# [4] = tested on: Enterococcus faecalis; assay: Antibacterial activity against vancomycin-susceptible Enterococcus faecalis ATCC29212 assessed as bacterial growth inhibition incubated for 20 hrs by CLSI based broth microdilution method
# [5] = tested on: Acinetobacter baumannii; assay: Antibacterial activity against Acinetobacter baumannii ATCC19606 assessed as bacterial growth inhibition incubated for 20 hrs by CLSI based broth microdilution method
# [6] = tested on: Escherichia coli; assay: Antibacterial activity against wild-type Escherichia coli BW25113 assessed as bacterial growth inhibition incubated for 20 hrs by CLSI based broth microdilution method
# [7] = tested on: Staphylococcus aureus; assay: Antibacterial activity against methicillin-resistant Staphylococcus aureus ATCC43300 assessed as bacterial growth inhibition incubated for 20 hrs by CLSI based broth microdilution method
# [8] = tested on: Enterococcus faecalis; assay: Antibacterial activity against vancomycin-resistant Enterococcus faecalis ATCC51299 assessed as bacterial growth inhibition incubated for 20 hrs by CLSI based broth microdilution method
# [9] = tested on: Enterococcus faecium; assay: Antibacterial activity against vancomycin-resistant Enterococcus faecium ATCC51559 assessed as bacterial growth inhibition incubated for 20 hrs by CLSI based broth microdilution method
# [10] = tested on: Bacillus subtilis; assay: Antibacterial activity against penicillin-susceptible Bacillus subtilis ATCC9372 assessed as bacterial growth inhibition incubated for 20 hrs by CLSI based broth microdilution method
# [11] = tested on: Bacillus pumilus; assay: Antibacterial activity against penicillin-susceptible Bacillus pumilus CMCC63202 assessed as bacterial growth inhibition incubated for 20 hrs by CLSI based broth microdilution method
# [12] = tested on: Staphylococcus aureus; assay: Antibacterial activity against Staphylococcus aureus clinical isolate assessed as bacterial growth inhibition incubated for 20 hrs by CLSI based broth microdilution method
# [13] = tested on: Enterococcus faecium; assay: Antibacterial activity against vancomycin-susceptible Enterococcus faecium ATCC19434 assessed as bacterial growth inhibition incubated for 20 hrs by CLSI based broth microdilution method
# [14] = tested on: Staphylococcus epidermidis; assay: Antibacterial activity against penicillin-resistant Staphylococcus epidermidis clinical isolate assessed as bacterial growth inhibition incubated for 20 hrs by CLSI based broth microdilution method
# [15] = tested on: Klebsiella pneumoniae; assay: Antibacterial activity against Klebsiella pneumoniae ATCC BAA-1902 assessed as bacterial growth inhibition incubated for 20 hrs by CLSI based broth microdilution method
# [16] = tested on: Staphylococcus aureus; assay: Antibacterial activity against erythromycin-susceptible Staphylococcus aureus ATCC25923 assessed as bacterial growth inhibition incubated for 20 hrs by CLSI based broth microdilution method
# [17] = tested on: Streptococcus pyogenes; assay: Antibacterial activity against erythromycin-susceptible Streptococcus pyogenes 1 assessed as bacterial growth inhibition incubated for 20 hrs by CLSI based broth microdilution method
SMILES,MIC [1] [µg/mL],MIC [2] [µg/mL],MIC [3] [µg/mL],MIC [4] [µg/mL],MIC [5] [µg/mL],MIC [6] [µg/mL],MIC [7] [µg/mL],MIC [8] [µg/mL],MIC [9] [µg/mL],MIC [10] [µg/mL],MIC [11] [µg/mL],MIC [12] [µg/mL],MIC [13] [µg/mL],MIC [14] [µg/mL],MIC [15] [µg/mL],MIC [16] [µg/mL],MIC [17] [µg/mL]
Cc1ccc(/C=C/c2cc(-c3ccc(C(C)(C)C)cc3)[n+](C)cc2-c2ccccc2C)cc1.[I-],4,8,2,4,4,8,0.5,2,2,0.5,1,0.5,2,2,8,1,2
CN[C@H](CC(C)C)C(=O)N[C@H]1C(=O)N[C@@H](CC(N)=O)C(=O)N[C@H]2C(=O)N[C@H]3C(=O)N[C@H](C(=O)N[C@H](C(=O)O)c4cc(O)cc(O)c4-c4cc3ccc4O)[C@H](O)c3ccc(c(Cl)c3)Oc3cc2cc(c3O[C@@H]2O[C@H](CO)[C@@H](O)[C@H](O)[C@H]2O[C@H]2C[C@](C)(N)[C@H](O)[C@H](C)O2)Oc2ccc(cc2Cl)[C@H]1O [VANCOMYCIN],1,> 64,,,64,> 64,,> 64,> 64,0.5,2,,,,> 64,,0.25
C[n+]1cc(-c2ccccc2)c(/C=C/c2ccc(N)cc2)cc1-c1ccccc1.[I-],16,> 64,64,64,32,> 64,16,> 64,64,4,16,16,> 64,32,> 64,2,4
COc1ccc2cc3[n+](cc2c1OC)CCc1cc2c(cc1-3)OCO2 [BERBERINE],> 64,> 64,> 64,> 64,> 64,> 64,> 64,> 64,> 64,> 64,> 64,64,> 64,> 64,> 64,64,> 64
CCCCCCCOc1ccc(/C=C/c2cc(-c3ccccc3)c[n+](C)c2-c2ccccc2)cc1.[I-],8,8,64,4,2,8,8,> 64,64,1,1,8,2,64,8,0.25,4
CN(C)c1ccc(/C=C/c2cc(-c3ccccc3)[n+](C)cc2-c2ccccc2)cc1.[I-],8,32,8,16,8,64,2,16,16,1,8,1,16,8,> 64,0.5,8
C[n+]1cc(-c2ccccc2)cc(/C=C/c2ccc(Cl)c(Cl)c2)c1-c1ccccc1.[I-],2,64,8,8,2,64,2,8,8,0.5,4,2,8,8,> 64,0.5,2
CCCCOc1ccc(/C=C/c2cc(-c3ccccc3)c[n+](C)c2-c2ccccc2)cc1.[I-],2,8,16,4,4,8,1,4,4,1,1,1,2,2,16,0.5,2
